In patent US20070015833A1 (priority 2005, published 2007):

Assay: small volume in vitro release in 50 ml 0.1N HCl
Type: physicochemical
Conditions: 37° C., 150 rpm
Procedure: The formulations were tested for their small volume in vitro release characteristics in 50 ml 0.1N HCl at 37° C. and 150 rpm using the following procedure: III. Instrumentation (or Equivalent) a. Automated Dissolution System comprising of: Hanson SR8 Plus Test Station Hanson Auto Plus Maximiser System Controller Hanson Auto Plus MultiFill Fraction Collector b. HPLC System comprising of: pump—Merck Hitachi L-7100 autoinjector—Merck Hitachi L-7200 column oven—Merck Hitachi L-7300 detector—Merck Hitachi L-7400 interface and integration software—Merck Hitachi D-7000
0.1N HCl Preparation Dilute 8.5 ml HCl 37% to 1 liter with purified water. Procedure Place one weighed capsule in each vessel containing 0.1N HCl and immediately operate the apparatus for 30 min. Unless otherwise specified, 3 ml samples are withdrawn from each vessel and immediately filtered through PTFE membranes at 15 and 30 min.
The small volume was chosen as a model of the conditions in a fasted stomach.

## CC(C)OC(=O)C(C)(C)Oc1ccc(C(=O)c2ccc(Cl)cc2)cc1 [Micronized Fenofibrate]
  dissolution (in words): no dissolution at all
15 min
  % dissolved 15 min: 0%
30 min
  % dissolved 30 min: 0%
